# Entries after “also recorded” stand apart in the source; their conditions may differ.
# Experiments:
# [1] = tested on: aged (24-month-old) C57BL/6 mice; experiment: Activity monitoring wheel test (frailty study); assay type: in vivo; conditions: 24-month-old mice
# Method: The animals were housed with access to voluntary running wheels that wirelessly transmit running data to a computer for analysis. Voluntary running wheel activity levels were measured daily, and body weights were measured every 2 weeks.
# The study concluded on Study Day 83. Activity wheel monitoring started on Study Day 1 and ended on Study Day 83 (Phase Day 64). The data was analyzed at the end of the study. […] For the frailty portion of the study, mice were assessed using an activity monitoring wheel which was monitored passively with a computer monitoring system. […]
# The activity-monitoring wheel is a running disk that monitors rotations. […] Activity was monitored passively and wirelessly with a computer monitoring system. Running wheel activity levels were monitored daily. […] Mouse activity levels were measured as the number of wheel revolutions per day for each mouse and converted into a daily count of kilometers run using the diameter of the wheel. Within each experimental group, the daily median value for activity was calculated. […] The daily differences between the distances run in each group were calculated and tested for an increasing trend using Kendall's rank correlation tau.
# pAMPK = experiment: Western blot of pAMPK in heart after oral BGE-105; assay type: in vivo; conditions: mice, oral 45 mg/kg, vs vehicle
# From the text: Administration of an apelin receptor agonist can induce the phosphorylation and activation of AMPK in heart tissue. Tissue samples were lysed using T-PER tissue protein extraction reagent (Thermo Fisher Scientific #78510) containing EDTA and protease/phosphatase inhibitors on the Omni Bead Ruptor 12 Homogenizer. Total protein was extracted then quantified using Pierce™ BCA Protein Assay Kit. Loaded equal amounts of total protein per lane on a 4-12% SDS-PAGE gel and transferred to PVDF membrane. Membranes were blocked and blotted with anti-phospho-AMPKα-Thr172 (Cell Signaling Technology, CST #2535), total-AMPKα (CST #2532), anti-phospho-Akt-SeR^473 (CST #4060), total-Akt (CST #4685), anti-phospho-ERK-1/2-Thr202/Tyr204 of Erk1 and Thr185/Tyr187 of Erk2 (CST #4370), total-ERK-1/2 (CST #9107) or anti-APLNR receptor (abcam, ab214369) antibodies. Band intensities were normalized to loading control anti-β-Actin (CST #3700) or anti-GAPDH (abcam, ab181602) antibodies. Immunoreactive proteins were detected using SuperSignal™ West Femto Substrate (Thermo Fisher Scientific #34095) and quantified by Image Lab™ software (Bio-Rad Laboratories, Inc.).
# Apelin can induce the phosphorylation of Akt in the soleus muscle and improve glucose homeostasis. […]
# 79-HMC = experiment: Early proliferation marker expression (RT-PCR), older donor cells; assay type: cell-based, human
# Method: Immortalized human cells from male donors (25-HMC) […] (79-HMC) are grown from the proliferation stage until they become 80% confluent, differentiate, and become myotubes. […] Early proliferation markers (Pax7, Myf5, MyoD, and MyoG were assessed via RT-PCR (FIG. 8D to 8K)
# [2] = tested on: Twenty-month-old male C57/B16 mice; experiment: Disuse-induced muscle atrophy (hindlimb casting) in aged mice; assay type: in vivo
# From the text: Limb immobilization causes a loss of gross skeletal muscle mass accompanied by a significant decrease in apelin transcript levels.
# One week into the treatment, mice underwent modified hindlimb casting on one limb. Mice were anesthetized with isoflurane inhalation and the hindlimb wiped with povidone-iodine, then ethanol, and loosely wrapped in surgical gauze. A custom-made plastic immobilization device was placed on the limb, with the foot in full extension, so as to result in the maximal in vivo unloading of the plantarflexor group. The device was fixed to the hindlimb using Vetbond and the animal returned to its cage. After 3 weeks of treatment following casting, mice were euthanized 1 hour after the final ZT1 dose, and tissues isolated, weighed, then flash frozen in liquid nitrogen for subsequent western blot analysis.
# [3] = 20-month-old immobilized mice, 50 mg/kg BID, 50 mg/kg
smiles,measurement,setting,value
"COc1cccc(OC)c1-n1c(NS(=O)(=O)[C@@H](C)[C@H](C)c2ncc(C)cn2)nnc1-c1cncc(C)c1 [BGE-105, (2S,3R)—N-(4-(2,6-dimethoxyphenyl)-5-(5-methyl-3-pyridinyl)-4H-1,2,4-triazol-3-yl)-3-(5-methyl-2-pyrimidinyl)-2-butanesulfonamide]",voluntary running wheel activity vs age-matched controls,"[1]; 275 ug/mL in drinking water ad libitum, 64 days",statistically significant increase in voluntary motor activity; also recorded: significantly more active; also recorded: decreased significantly less
same,distance run more than vehicle-treated mice at end of experimental period,"[1]; 275 ug/mL in drinking water, both experiments, on average",at least 1 km/day
same,pAMPK levels in the heart,pAMPK,increased levels; also recorded: significantly higher
same,"expression of muscle cell differentiation markers Pax7, Myf5, MyoD, and MyoG",79-HMC; aged-donor cells,increased the expression
same,Pax7 levels,"79-HMC; older cells, 0.05, 0.5, 5, 50 nM, vs control",significant increase at all treatment doses
same,MyoG levels,"79-HMC; older cells, all treatment levels",increase at all treatment levels
same,Myf5 expression,"79-HMC; older donor cells, 5 and 50 nM",equal to apelin treatment
same,MyoD levels,"79-HMC; older donor cells, all treatment levels",increase at all treatment levels
same,extensor digitorum longus (EDL) muscle weight / atrophy,[2]; [3],did not measurably atrophy; also recorded: near significant improvement in muscle weight; also recorded: near significant decrease in the percent atrophy
same,gastrocnemius atrophy,[2]; [3],less effective; also recorded: no improvement
same,soleus muscle weight / atrophy,[2]; [3],modest rescue in atrophy; also recorded: near significant improvement in muscle weight; also recorded: marginal improvement in the percent atrophy
same,tibialis anterior muscle weight / percent atrophy vs vehicle,[2]; [3],significant improvement in maintaining muscle weight; also recorded: significant decrease in the percent atrophy
same,decrease in wet weight of tibialis anterior (TA) muscle,"[2]; casted limb, 50 mg/kg BID P.O., 21 days immobilization",3%
same,muscle atrophy / loss of muscle mass induced by immobilization,"[2]; immobilized aged mice, orally dosed, vs vehicle",significantly reduced muscle atrophy; also recorded: protected against some loss of muscle mass

# Reference: US20240252493A1, “Apelin Receptor Modulators for Treating Age-Related Muscle Conditions” (BIOAGE LABS, INC., priority 2021, published 2024)
